pIC50: −log10 of the molar value.
Legend:
[1] = target: Cathepsin D (Cat D) (Homo sapiens (Human), UniProt P07339); assay: In vitro enzymatic Cathepsin D (Cat D) FRET assay; format: biochemical; conditions: read-out: CatD IC50
[2] = target: BACE (Homo sapiens (Human), UniProt P56817); assay: In vitro BACE cell-based assay (Aβ40 in conditioned medium, sandwich ELISA)
[3] = target: Beta Secretase enzyme (BACE) (Homo sapiens (Human), UniProt P56817); assay: In vitro enzymatic BACE FRET assay; format: biochemical; conditions: read-out: BACE1 Enzyme assay IC50
Chain of Beta Secretase enzyme (BACE) (P56817 46-501): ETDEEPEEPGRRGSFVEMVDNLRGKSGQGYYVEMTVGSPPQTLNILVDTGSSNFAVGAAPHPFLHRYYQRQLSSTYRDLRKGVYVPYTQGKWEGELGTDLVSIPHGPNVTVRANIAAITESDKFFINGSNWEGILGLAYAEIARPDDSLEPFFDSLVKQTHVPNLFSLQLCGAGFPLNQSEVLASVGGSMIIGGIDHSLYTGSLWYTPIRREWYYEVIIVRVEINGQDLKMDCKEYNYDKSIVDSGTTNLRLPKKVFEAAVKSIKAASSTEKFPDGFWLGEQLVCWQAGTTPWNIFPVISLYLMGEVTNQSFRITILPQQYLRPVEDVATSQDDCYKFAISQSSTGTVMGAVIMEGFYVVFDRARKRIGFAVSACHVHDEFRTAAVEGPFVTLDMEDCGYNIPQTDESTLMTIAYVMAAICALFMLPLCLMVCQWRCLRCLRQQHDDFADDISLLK

Chain of Cathepsin D (Cat D) (P07339 65-412, species assumed): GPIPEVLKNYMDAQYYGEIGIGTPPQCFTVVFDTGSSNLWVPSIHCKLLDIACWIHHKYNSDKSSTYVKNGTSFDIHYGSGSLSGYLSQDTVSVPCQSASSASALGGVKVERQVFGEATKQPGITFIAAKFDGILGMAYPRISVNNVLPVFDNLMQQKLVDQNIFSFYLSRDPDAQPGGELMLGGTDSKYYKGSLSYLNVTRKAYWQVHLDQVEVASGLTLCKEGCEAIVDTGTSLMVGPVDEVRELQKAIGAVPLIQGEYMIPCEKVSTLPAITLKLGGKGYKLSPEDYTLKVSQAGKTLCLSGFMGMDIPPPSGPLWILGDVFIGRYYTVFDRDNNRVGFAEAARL
Chain of BACE (P56817 46-501, species assumed): as the sequence (P56817 46-501) above

Row | Structure (SMILES) | pIC50 [1] | IC50 [2] | pIC50 [3] | pIC50 [2]
1 | NC1=N[C@](c2cc(NC(=O)c3ccc(Cl)cn3)ccc2F)(C(F)(F)F)[C@@H]2C[C@@H]2O1 (racemic) [Example 218, N-(3-((1(R,S),5(S,R),6(R,S))-3-amino-5-(trifluoromethyl)-2-oxa-4-azabicyclo[4.1.0]hept-3-en-5-yl)-4-fluorophenyl)-5-chloropicolinamide compound] | < 3.40 | > 15.6 µM | 6.06 | –
2 | N#Cc1cnc(C(=O)Nc2ccc(F)c([C@]3(CF)N=C(N)O[C@H]4C[C@H]43)c2)c(Cl)c1 (racemic) [Example 227, N-(3-((1(R,S),5(S,R),6(R,S))-3-amino-5-(fluoromethyl)-2-oxa-4-azabicyclo[4.1.0]hept-3-en-5-yl)-4-fluorophenyl)-3-chloro-5-cyanopicolinamide] | 2.65 | 0.0105 µM | 7.33 | –
3 | Cc1cc(C#N)cnc1C(=O)Nc1cc(F)c(C)c([C@@]2(C(F)F)N=C(N)O[C@@H]3C[C@@H]32)c1 (racemic) [Example 309, N-(3-(((1R,S),(5S,R),(6R.S))-3-amino-5-(difluoromethyl)-2-oxa-4-azabicyclo[4.1.0]hept-3-en-5-yl)-5-fluoro-4-methylphenyl)-5-cyano-3-methylpicolinamide] | 3.38 | 0.0387 µM | 7.13 | –
4 | N#Cc1ccc(C(=O)Nc2ccc(F)c([C@@]3(C(F)F)N=C(N)O[C@@H]4C[C@@H]43)n2)nc1 (racemic) [Example 330] | 3.86 | 0.0326 µM | 7.00 | –
5 | CS(=O)(=O)c1c(F)cc(NC(=O)c2ccc(Cl)cn2)cc1[C@@]1(CF)N=C(N)O[C@@H]2C[C@@H]21 (racemic) [Example 424, N-(3-(((1RS),(5S,R),(6R,S))-3-amino-5-(fluoromethyl)-2-oxa-4-azabicyclo[4.1.0]hept-3-en-5-yl)-5-fluoro-4-(methylsulfonyl)phenyl)-5-chloropicolinamide] | 3.08 | – | 5.99 | 6.60
6 | C#CCOc1cnc(C(=O)Nc2cc(F)c(F)c(C3(CF)N=C(N)O[C@H]4C[C@H]43)c2)cn1 (stereo in doubt) [Example 34, N-(3-((1S,5S,6S)-3-amino-5-(fluoromethyl)-2-oxa-4-azabicyclo[4.1.0]hept-3-en-5-yl)-4,5-difluorophenyl)-5-(prop-2-yn-1-yloxy)pyrazine-2-carboxamide] | 3.21 | 1.75 µM | 5.21 | –
7 | CC#CCOc1cnc(C(=O)Nc2cc(F)c(F)c(C3(CF)N=C(N)O[C@H]4C[C@H]43)c2)cn1 (stereo in doubt) [Example 36, N-(3-((1S,5S,6S)-3-amino-5-(fluoromethyl)-2-oxa-4-azabicyclo[4.1.0]hept-3-en-5-yl)-4,5-difluorophenyl)-5-(but-2-yn-1-yloxy)pyrazine-2-carboxamide] | 3.28 | 0.176 µM | 6.53 | –
8 | NC1=NC(CF)(c2cc(NC(=O)c3ccc(Br)cn3)cc(F)c2F)[C@@H]2C[C@@H]2O1 (stereo in doubt) [Example 40, N-(3-((1S,5S,6S)-3-amino-5-(fluoromethyl)-2-oxa-4-azabicyclo[4.1.0]hept-3-en-5-yl)-4,5-difluorophenyl)-5-bromopicolinamide] | 3.29 | 1.91 µM | 5.19 | –
9 | NC1=NC(CF)(c2cc(NC(=O)c3nn(C(F)F)cc3Cl)cc(F)c2F)[C@@H]2C[C@@H]2O1 (stereo in doubt) [Example 47, N-(3-((1S,5S,6S)-3-amino-5-(fluoromethyl)-2-oxa-4-azabicyclo[4.1.0]hept-3-en-5-yl)-4,5-difluorophenyl)-4-chloro-1-(difluoromethyl)-1H-pyrazole-3-carboxamide] | 3.01 | 1.76 µM | 4.67 | –
10 | Cc1cc(C#N)cnc1C(=O)Nc1cc(F)c(F)c([C@@]2(CF)N=C(N)O[C@@H]3C[C@@H]32)c1 (stereo in doubt) [Example 50] | 2.76 | > 15.6 µM | 4.57 | –
11 | Cc1cc(C(F)(F)F)cnc1C(=O)Nc1cc(F)c(F)c([C@@]2(CF)N=C(N)O[C@@H]3C[C@@H]32)c1 (stereo in doubt) [Example 52] | 2.79 | > 15.6 µM | < 4.40 | –
12 | Cc1nc(Cl)cnc1C(=O)Nc1ccc(F)c([C@@]2(C(F)F)N=C(N)O[C@@H]3C[C@@H]32)c1 (stereo in doubt) [Example 53, N-(3-((1R,5S,6R)-3-amino-5-(difluoromethyl)-2-oxa-4-azabicyclo[4.1.0]hept-3-en-5-yl)-4-fluorophenyl)-5-chloro-3-methylpyrazine-2-carboxamide] | 3.24 | 2.38 µM | 7.21 | –
13 | Cc1ncc(Cl)nc1C(=O)Nc1ccc(F)c([C@@]2(C(F)F)N=C(N)O[C@@H]3C[C@@H]32)c1 (stereo in doubt) [Example 54, N-(3-((1R,5S,6R)-3-amino-5-(difluoromethyl)-2-oxa-4-azabicyclo[4.1.0]hept-3-en-5-yl)-4-fluorophenyl)-6-chloro-3-methylpyrazine-2-carboxamide] | 3.34 | 2.24 µM | 5.60 | –
14 | NC1=N[C@](CF)(c2nc(NC(=O)c3ccc(Cl)cn3)ccc2F)[C@H]2C[C@H]2O1 (stereo in doubt) [Example 105, N-(6-((1R,5S,6R)-3-amino-5-(fluoromethyl)-2-oxa-4-azabicyclo[4.1.0]hept-3-en-5-yl)-5-fluoropyridin-2-yl)-5-chloropicolinamide] | 2.79 | 2.1 µM | 4.41 | –
15 | NC1=N[C@@](CF)(c2nc(NC(=O)c3ccc(Cl)cn3)ccc2F)[C@@H]2C[C@@H]2O1 (stereo in doubt) [Example 106, N-(6-((1S,5R,6S)-3-amino-5-(fluoromethyl)-2-oxa-4-azabicyclo[4.1.0]hept-3-en-5-yl)-5-fluoropyridin-2-yl)-5-chloropicolinamide] | 3.67 | 0.0456 µM | 6.60 | –
16 | NC1=N[C@@](c2cc(NC(=O)c3nn(C(F)F)cc3Cl)cc(F)c2F)(C(F)F)[C@H]2C[C@H]2O1 (stereo in doubt) [Example 110, N-(3-((1R,5S,6R)-3-amino-5-(difluoromethyl)-2-oxa-4-azabicyclo[4.1.0]hept-3-en-5-yl)-4,5-difluorophenyl)-4-chloro-1-(difluoromethyl)-1H-pyrazole-3-carboxamide] | 2.83 | > 17.4 µM | 4.58 | –
17 | NC1=NC(c2cc(NCc3nn(C(F)F)cc3Cl)ccc2F)(C(F)F)[C@H]2C[C@H]2O1 (stereo in doubt) [Example 374, (1R,5R,6R)-5-(5-(((4-chloro-1-(difluoromethyl)-1H-pyrazol-3-yl)methyl)amino)-2-fluorophenyl)-5-(difluoromethyl)-2-oxa-4-azabicyclo[4.1.0]hept-3-en-3-amine] | 3.94 | 0.0779 µM | 7.02 | –
18 | COc1cc(Cl)cnc1C(=O)Nc1ccc(F)c([C@@]2(C(F)F)N=C(N)O[C@@H]3C[C@@H]32)c1 [Example 28, N-(3-((1R,5S,6R)-3-amino-5-(difluoromethyl)-2-oxa-4-azabicyclo[4.1.0]hept-3-en-5-yl)-4-fluorophenyl)-5-chloro-3-methoxypicolinamide] | 3.04 | 0.0765 µM | 6.93 | –
19 | NC1=N[C@@](CF)(c2cc(NC(=O)c3ccc(Cl)cn3)cc(F)c2F)[C@@H]2C[C@@H]2O1 [Example 32, N-(3-((1 S,5R,6S)-3-amino-5-(fluoromethyl)-2-oxa-4-azabicyclo[4.1.0]hept-3-en-5-yl)-4,5-difluorophenyl)-5-chloropicolinamide] | 2.99 | 0.232 µM | 5.91 | –
20 | C#CCOc1cnc(C(=O)Nc2cc(F)c(F)c([C@@]3(CF)N=C(N)O[C@@H]4C[C@@H]43)c2)cn1 [Example 33, N-(3-((1R,5S,6R)-3-amino-5-(fluoromethyl)-2-oxa-4-azabicyclo[4.1.0]hept-3-en-5-yl)-4,5-difluorophenyl)-5-(prop-2-yn-1-yloxy)pyrazine-2-carboxamide] | 3.94 | 0.0014 µM | 8.27 | –
21 | CC#CCOc1cnc(C(=O)Nc2cc(F)c(F)c([C@@]3(CF)N=C(N)O[C@@H]4C[C@@H]43)c2)cn1 [Example 35, N-(3-((1R,5S,6R)-3-amino-5-(fluoromethyl)-2-oxa-4-azabicyclo[4.1.0]hept-3-en-5-yl)-4,5-difluorophenyl)-5-(but-2-yn-1-yloxy)pyrazine-2-carboxamide] | 3.59 | 0.0006 µM | 8.80 | –
22 | NC1=N[C@](CF)(c2cc(NC(=O)c3ccc(Br)cn3)cc(F)c2F)[C@H]2C[C@H]2O1 [Example 39, N-(3-((1R,5S,6R)-3-amino-5-(fluoromethyl)-2-oxa-4-azabicyclo[4.1.0]hept-3-en-5-yl)-4,5-difluorophenyl)-5-bromopicolinamide] | 3.96 | 0.0179 µM | 7.33 | –
23 | NC1=N[C@](CF)(c2cc(NC(=O)c3nn(C(F)F)cc3Cl)cc(F)c2F)[C@H]2C[C@H]2O1 [Example 46, N-(3-((1R,5S,6R)-3-amino-5-(fluoromethyl)-2-oxa-4-azabicyclo[4.1.0]hept-3-en-5-yl)-4,5-difluorophenyl)-4-chloro-1-(difluoromethyl)-1H-pyrazole-3-carboxamide] | 3.76 | 0.0046 µM | 7.74 | –
24 | Cc1cc(C#N)cnc1C(=O)Nc1cc(F)c(F)c([C@@]2(CF)N=C(N)O[C@@H]3C[C@@H]32)c1 [Example 49] | 3.69 | 0.0082 µM | 7.51 | –
25 | Cc1cc(C(F)(F)F)cnc1C(=O)Nc1cc(F)c(F)c([C@@]2(CF)N=C(N)O[C@@H]3C[C@@H]32)c1 [Example 51] | 3.95 | 0.0143 µM | 7.20 | –
26 | CC#CCOc1cnc(C(=O)Nc2ccc(F)c([C@@]3(C)N=C(N)O[C@@H]4C[C@@H]43)c2)c(C)c1 [Example 56, N-(3-((1R,5S,6R)-3-amino-5-methyl-2-oxa-4-azabicyclo[4.1.0]hept-3-en-5-yl)-4-fluorophenyl)-5-(but-2-yn-1-yloxy)-3-methylpicolinamide] | 3.52 | 0.003 µM | 7.89 | –
